Tests used:
[1] = tested on: primary CD4+ T lymphocytes; experiment: Annexin V/propidium iodide FACS apoptosis of stimulated primary blood CD4+ T lymphocytes; type: cell-based, human; conditions: anti-CD3, anti-CD28, rIL-2; 4-5 days; at least comparable to 6-MP
Source text: Isolation of primary CD4^+ T lymphocytes and lamina propria cells: Human peripheral blood mononuclear cells (PBMCs) from healthy volunteers (25-42 years of age) and patients with Crohn's disease (31-65 years of age) were isolated using Ficoll-Hypaque gradients. PBMCs were further purified using CD4 monoclonal antibodies attached to immunomagnetic beads according to the manufacturer's protocol, followed by treatment with Detachabead (Dynal; Oslo, Norway). In some cases, CD4^+ T cells were further separated by negative selection techniques using CD45RO or CD45RA monoclonal antibodies (PharMingen; Heidelberg, Germany) and immunomagnetic beads (Dynal). […] Lamina propria mononuclear cells (LPMCs) from patients with IBD were isolated from gut specimens using a short-term (5-minute) digestion protocol with collagenase V, hyaluronidase (Sigma-Aldrich; St. Louis, Mo., USA), and DNase (Roche; Mannheim, Germany), as recently described in detail in Holtmann et al., Eur. J. Immunol. 32:3142-3151 (2002). Briefly, specimens were washed in calcium- and magnesium-free HBSS (HBSS-CMF), cut into 0.5-cm pieces, and incubated twice in HBSS containing EDTA (0.37 mg/ml) and DTT (0.145 mg/ml) at 37° C. for 15 minutes, followed by subsequent digestion for 5 minutes with collagenase V 400 (1 mg/ml), deoxyribonuclease (0.1 mg/ml DNase), and hyaloronidase (0.1 mg/ml) in a shaking incubator at 37° C. The digested tissue was washed twice in RPMI medium containing 10% FCS and centrifuged. The tissue was finally mechanically homogenized (DAKO homogenizer; Hamburg, Germany) for 4 minutes, and cells were filtered through a sterile 40-μm cell strainer (Falcon; San Diego, Calif., USA).
Such CD28 costimulation is known to prevent apoptosis of primary T cells during T cell receptor (TCR) stimulation through activation of bcl-x, and NF-κB (Noel et al., J. Immunol. 157:636-647 (1996); Radvanyi et al., J. Immunol. 156:1788-1798 (1996); Khoshnan et al., J. Immunol. 165:1743-1754 (2000)). […] In addition, recombinant IL-2 (R&D Systems; Wiesbaden, Germany) was used at a final concentration of 40 U/ml in all experiments. Lamina propria T lymphocytes were stimulated with antibodies to CD2 (4 μg/ml; Immunotech; Marseille, France) and CD28 (1 μg/ml). […] To block CD95L-mediated (FasL-mediated) apoptosis, the NOK-1 antibody (4 μg/ml, PharMingen) was used whose Fab fragments bind to human CD95L (FasL) (Jodo et al., J. Immunol. 165:5487-5494 (2000)). Recombinant human FasL (Alexis Biochemicals; Heidelberg, Germany) was used as a positive control for the NOK-1 antibody (10 μg/ml).
For FACS analysis, apoptotic cells were detected by staining with annexin V and propidium iodide using the Annexin V FITC Apoptosis Detection Kit I (PharMingen) (Atreya et al., Nat. Med. 6:583-588 (2000)). In brief, T cells were washed twice in PBS, and the pellet was resuspended in annexin V binding buffer (PharMingen) at a concentration of 10^6 cells per milliliter. Annexin V FITC and propidium iodide were added (5 ill of each per 10^5 cells). Samples were gently mixed and incubated for 15 minutes at room temperature in the dark before FACS analysis. To verify the results obtained with the annexin V/propidium iodide staining, analysis of T cells displaying DNA fragmentation was also determined by the Nicoletti technique, as described in (Nicoletti et al., J. Immunol. Methods 139:271-279 (1991)). 10^6 T cells were fixed in 70% ethanol, washed once in HBSS, resuspended in 1 ml of HBSS and 1 ml of phosphate citric acid buffer (0.2 mol/l Na2PO4 and 0.004 mol/l citric acid [pH 7.8]), and incubated at room temperature for 5 minutes. After centrifugation, cells were resuspended in 1 ml of HBSS containing 20 μg/ml propidium iodide and 10 U DNase-free RNase A and incubated at room temperature for 30 minutes. Finally, cells were analyzed on a FACScan flow cytometer. Because of the fragmentation of DNA, apoptotic cells appear as hypodiploid in the DNA histogram.

Rac1 = Rac1 activation assay (GTP-bound Rac1, PAK pull-down); type: cell-based, human; conditions: primary T cells, 3 days
Experimental: (§1) Cell lysates were incubated with 10 μg/ml PAK-1 agarose (Rac assays) or 10 μg/mg Raf RBD agarose (Ras assay) for 60 minutes (Rac assays) or 30 minutes (Ras assays) at 4° C. Agarose beads were collected by centrifugation followed by denaturation, boiling of the samples, and SDS-PAGE analysis.

Ras = Ras activation assay (GTP-bound Ras, Raf RBD pull-down); type: cell-based, human; conditions: primary T cells
Experimental: as §1

[2] = tested on: primary CD4+ T lymphocytes; experiment: Mitochondrial membrane potential (JC-1, FACS); conditions: positive control, 50 μM for 18 hours
[3] = Interconversion of TGDP and TGTP in spiked blank RBC during sample work-up; type: in vitro ADME, human
Experimental: Calibration samples and controls were prepared as described in Rabel et al., supra, with minor modifications. Known amounts of 6-thioguanosine phosphates were added to a mixture of EDTA and 10 μl of DTT to give a final volume of 150 μl. Finally, 100 μl of blank RBC were added and the mixture thoroughly homogenized by vortex mixing. Sample preparation was performed as described above. Calibration curves covered the range of 10 to 50 pmol for TGMP, 10 to 100 pmol for TGDP, and 20 to 400 pmol for TGTP per sample referred to 100 μl of packed blank RBC. Standard curves were obtained by linear regression using peak areas versus concentrations. Because of the partial conversion of TGDP to TGTP and vice versa, both peak areas were summed up. In addition, combinations of 5 to 20 percent of TGDP per sum of TGDP and TGTP were prepared.
The percentage of conversion of TGDP to TGTP and of TGTP to TGDP was assessed using three sets of TGDP and TGTP calibrators prepared with different RBC.

[4] = as above; type: in vitro ADME, human; remark: listed apart in the source
[5] = Stability of thioguanosine phosphates in patient blood samples; type: in vitro ADME, human
Experimental: Stability of the thioguanosine phosphates in blood samples was examined by storing blood samples from patients for up to 5 days at ambient temperature. RBC were isolated after the specified storage time and frozen at −80° C. until analysis.

Recombinant Rac1 = Recombinant Rac1 (Homo sapiens, UniProt P63000); experiment: Competition of [3H]GTP binding to recombinant Rac1; conditions: 0-500 μM, PAK pull-down, scintillation counting
Experimental: (§2) Rac and Ras activation assays: The levels of Rac1- and Ras-bound GTP were determined by immunoblot techniques (Upstate Biotech; London, United Kindom). […] Cell lysates were incubated with 10 μg/ml PAK-1 agarose (Rac assays) or 10 μg/mg Raf RBD agarose (Ras assay) for 60 minutes (Rac assays) or 30 minutes (Ras assays) at 4° C. Agarose beads were collected by centrifugation followed by denaturation, boiling of the samples, and SDS-PAGE analysis. Proteins were transferred to nitrocellulose membranes and incubated with 1 μg/ml murine anti-human Rac1 or anti-human Ras (clone Ras10) antibodies overnight at 4° C., followed by detection with goat anti-mouse HRP-conjugated IgG (1:1000 dilution) and the ECL detection system. To analyze the capacity of TGTP to bind to Rac1 or Ras, chemically synthesized TGTP (obtained from Jena Bioscience, Jena, Germany) was used. Recombinant Rac1 or Ras was incubated with radiolabeled GTP ([^3H]GTP, Amersham) and increasing amounts of TGTP (0-500 μM) followed by Rac1 and Ras pull-down through PAK and Raf RGD and analysis of [^3H]GTP-bound Rac1 or Ras by scintillation counting.

[6] = Stability of thioguanosine phosphates in extracted samples; type: physicochemical
Source text: Stability of thioguanosine phosphates in extracted samples was investigated by storage of extracted samples from 12 patients before oxidation and after oxidation for 14 days and comparing the results with the same samples analyzed immediately after oxidation.

[7] = Stability during storage of RBC at −80° C.; type: in vitro ADME, human
Experimental: Stability during storage of RBC at −80° C. was investigated in samples from 18 patients. RBC which were analyzed within one week after isolation were compared with RBC stored for up to 14 weeks.

Recombinant Ras = experiment: Competition of [3H]GTP binding to recombinant Ras; conditions: 0-500 μM, Raf RGD pull-down, scintillation counting
Experimental: as §2

[8] = tested on: primary CD4+ T lymphocytes; experiment: Blocking of caspase-8 and caspase-9 activity in 6-MP-induced apoptosis; type: cell-based, human; conditions: 10 μM inhibitor; FACS after 5 days
Experimental: Blocking of caspase-8 and caspase-9 activity: Primary CD4^+ T lymphocytes from peripheral blood were isolated as described above and stimulated with antibodies to CD3 and CD28 in the presence or absence of indicated amounts of N-acetyl-Leu-Glu-His-Asp-aldehyde (Biomol), a reversible inhibitor of caspase-9, or Ac-Ile-Glu-Thr-Asp-aldehyde (Bachem; Heidelberg, Germany), an inhibitor of caspase-8. Apoptosis was determined by FACS analysis after 5 days of cell culture.

[9] = more than 10 different blank RBC
[10] = 5 days of storage of blood at ambient temperature

Nc1nc2nc[nH]c2c(=S)[nH]1 [6-TG, 6-thioguanine]
apoptosis of primary blood CD4+ T lymphocytes [1]: marked apoptosis | CD28 costimulation induced Rac1 activation (GTP-bound Rac1) (Rac1): strongly suppressed | activation of Ras (GTP-bound Ras) (Ras): fail to modulate

N#CC(C#N)=NNc1ccc(OC(F)(F)F)cc1 [FCCP, carbonylcyanide-4-(trifluoromethoxy)-phenylhydrazone]
ΔΨm in primary CD4+ T cells [2]: marked reduction of ΔΨm

Nc1nc2c(ncn2[C@@H]2O[C@H](COP(=O)(O)OP(=O)(O)O)[C@@H](O)[C@H]2O)c(=S)[nH]1 [TGDP, 6-thioguanosine diphosphate]
Area % of calibrator added, area calibrator × 100/(area TGTP + area TGDP), mean (n = 6) ([3]; spiked RBC 1): 91.6% | Area % of calibrator added, area calibrator × 100/(area TGTP + area TGDP), mean (n = 6) ([3]; spiked RBC 2): 92.6% | Area % of calibrator added, area calibrator × 100/(area TGTP + area TGDP), mean (n = 6) ([3]; spiked RBC 3): 92.8% | conversion of TGDP to TGTP ([3]; spiked samples from three healthy volunteers): 7-8% | Area % of calibrator added, area calibrator × 100/(area TGTP + area TGDP), mean (n = 6) ([4]; 0.9% NaCl): 100.0% | conversion of TGDP ([4]; 0.9% NaCl): did not show any conversion | conversion of TGDP to TGTP [4, 9]: 6-15% | change of amount of TGDP ([5]; up to 5 days of storage of blood at ambient temperature): did not change significantly

Nc1nc2c(ncn2[C@@H]2O[C@H](COP(=O)(O)O)[C@@H](O)[C@H]2O)c(=S)[nH]1 [TGMP, 6-thioguanosine monophosphate]
amount of TGMP as share of total thioguanosine phosphates [5, 10]: more than 70%

Nc1nc2c(ncn2[C@@H]2O[C@H](COP(=O)(O)OP(=O)(O)OP(=O)(O)O)[C@@H](O)[C@H]2O)c(=S)[nH]1 [TGTP, 6-thioguanosine triphosphate]
Area % of calibrator added, area calibrator × 100/(area TGTP + area TGDP), mean (n = 6) ([3]; spiked RBC 1): 90.3% | Area % of calibrator added, area calibrator × 100/(area TGTP + area TGDP), mean (n = 6) ([3]; spiked RBC 2): 93.9% | Area % of calibrator added, area calibrator × 100/(area TGTP + area TGDP), mean (n = 6) ([3]; spiked RBC 3): 82.2% | conversion of TGTP to TGDP ([3]; subject 1): 9.7% | conversion of TGTP to TGDP ([3]; subject 2): 6.1% | conversion of TGTP to TGDP ([3]; third sample): ~18% | Area % of calibrator added, area calibrator × 100/(area TGTP + area TGDP), mean (n = 6) ([4]; 0.9% NaCl): 95.6% | conversion of TGTP to TGDP [4, 9]: 6-20% | TGDP found after sample work-up ([4]; saline samples spiked with TGTP): about 5% | TGTP recovered [5, 10]: about 5% | change of TGTP on storage of blood samples ([5]; one day at ambient temperature): marked decrease | binding to recombinant Rac1 / suppression of [3H]GTP-bound Rac1 (Recombinant Rac1): able to bind to recombinant Rac1 under in vitro conditions (although with lower affinity than GTP) | binding to recombinant Rac1 / suppression of [3H]GTP-bound Rac1 (Recombinant Rac1; listed as 6-Thio-GTP): concentration-dependent suppression | reduction of the proportion of TGTP ([6]; non-oxidized extracts kept 14 days at ambient temperature before oxidation, average (range from −5 to −12%)): 7% | decrease of TGTP proportion ([6]; oxidized samples stored for 14 days (range from −6 to −13%)): approximately 8% | decrease of the proportion of TGTP ([7]; RBC from 18 patients at −80° C. for 8 to 14 weeks, thawed twice): 7.6±7.6% | effect of repeated thawing and freezing of RBC samples ([7]; dephosphorylation of TGTP to TGDP): progression in dephosphorylation | competition with GTP for recombinant Ras / [3H]GTP-bound Ras (Recombinant Ras): did not significantly compete | competition with GTP for recombinant Ras / [3H]GTP-bound Ras (Recombinant Ras; listed as 6-Thio-GTP): little effect

Ac-IETD-aldehyde [acetyl-IETD-CHO]
effect on 6-MP-induced apoptosis of primary T lymphocytes [8]: lesser effects

N-acetyl-Leu-Glu-His-Asp-aldehyde (Ac-LEHD-aldehyde; SMILES CC(=O)N[C@@H](CC(C)C)C(=O)N[C@@H](CCC(=O)O)C(=O)N[C@@H](Cc1c[nH]cn1)C(=O)N[C@H](C=O)CC(=O)O) [acetyl-LEHD-CHO]
effect on 6-MP-induced apoptosis of primary T lymphocytes [8]: suppressed 6-MP-induced apoptosis

Reference: patent publication US7524851B2 (Robert Bosch Gesellschaft fur Medizinische Forschung (RBMF), priority 2003, dated 2009)
